Laboratory results reported in patent publication US10670605B2, “Cysteine reactive probes and uses thereof” (The Scripps Research Institute, priority 2015, dated 2020).

Key:
[1] = molecular target: RRAGC C377 (Q9HB90) (Homo sapiens, UniProt Q9HB90); test: Competitive isoTOP-ABPP, cell lysates; type: binding
[2] = molecular target: LRBA C1704 (P50851) (Homo sapiens, UniProt P50851); test: Competitive isoTOP-ABPP, cell lysates; type: binding; settings: for isoTOP-ABPP reactivity ratio, P50851_C1704 / isoTOP-ABPP reactivity profile ratio, P50851_C1704: 500 μm, in-vitro_ramos
LRBA C1704 (P50851), sequence (P50851 whole entry, the tested form may be a part): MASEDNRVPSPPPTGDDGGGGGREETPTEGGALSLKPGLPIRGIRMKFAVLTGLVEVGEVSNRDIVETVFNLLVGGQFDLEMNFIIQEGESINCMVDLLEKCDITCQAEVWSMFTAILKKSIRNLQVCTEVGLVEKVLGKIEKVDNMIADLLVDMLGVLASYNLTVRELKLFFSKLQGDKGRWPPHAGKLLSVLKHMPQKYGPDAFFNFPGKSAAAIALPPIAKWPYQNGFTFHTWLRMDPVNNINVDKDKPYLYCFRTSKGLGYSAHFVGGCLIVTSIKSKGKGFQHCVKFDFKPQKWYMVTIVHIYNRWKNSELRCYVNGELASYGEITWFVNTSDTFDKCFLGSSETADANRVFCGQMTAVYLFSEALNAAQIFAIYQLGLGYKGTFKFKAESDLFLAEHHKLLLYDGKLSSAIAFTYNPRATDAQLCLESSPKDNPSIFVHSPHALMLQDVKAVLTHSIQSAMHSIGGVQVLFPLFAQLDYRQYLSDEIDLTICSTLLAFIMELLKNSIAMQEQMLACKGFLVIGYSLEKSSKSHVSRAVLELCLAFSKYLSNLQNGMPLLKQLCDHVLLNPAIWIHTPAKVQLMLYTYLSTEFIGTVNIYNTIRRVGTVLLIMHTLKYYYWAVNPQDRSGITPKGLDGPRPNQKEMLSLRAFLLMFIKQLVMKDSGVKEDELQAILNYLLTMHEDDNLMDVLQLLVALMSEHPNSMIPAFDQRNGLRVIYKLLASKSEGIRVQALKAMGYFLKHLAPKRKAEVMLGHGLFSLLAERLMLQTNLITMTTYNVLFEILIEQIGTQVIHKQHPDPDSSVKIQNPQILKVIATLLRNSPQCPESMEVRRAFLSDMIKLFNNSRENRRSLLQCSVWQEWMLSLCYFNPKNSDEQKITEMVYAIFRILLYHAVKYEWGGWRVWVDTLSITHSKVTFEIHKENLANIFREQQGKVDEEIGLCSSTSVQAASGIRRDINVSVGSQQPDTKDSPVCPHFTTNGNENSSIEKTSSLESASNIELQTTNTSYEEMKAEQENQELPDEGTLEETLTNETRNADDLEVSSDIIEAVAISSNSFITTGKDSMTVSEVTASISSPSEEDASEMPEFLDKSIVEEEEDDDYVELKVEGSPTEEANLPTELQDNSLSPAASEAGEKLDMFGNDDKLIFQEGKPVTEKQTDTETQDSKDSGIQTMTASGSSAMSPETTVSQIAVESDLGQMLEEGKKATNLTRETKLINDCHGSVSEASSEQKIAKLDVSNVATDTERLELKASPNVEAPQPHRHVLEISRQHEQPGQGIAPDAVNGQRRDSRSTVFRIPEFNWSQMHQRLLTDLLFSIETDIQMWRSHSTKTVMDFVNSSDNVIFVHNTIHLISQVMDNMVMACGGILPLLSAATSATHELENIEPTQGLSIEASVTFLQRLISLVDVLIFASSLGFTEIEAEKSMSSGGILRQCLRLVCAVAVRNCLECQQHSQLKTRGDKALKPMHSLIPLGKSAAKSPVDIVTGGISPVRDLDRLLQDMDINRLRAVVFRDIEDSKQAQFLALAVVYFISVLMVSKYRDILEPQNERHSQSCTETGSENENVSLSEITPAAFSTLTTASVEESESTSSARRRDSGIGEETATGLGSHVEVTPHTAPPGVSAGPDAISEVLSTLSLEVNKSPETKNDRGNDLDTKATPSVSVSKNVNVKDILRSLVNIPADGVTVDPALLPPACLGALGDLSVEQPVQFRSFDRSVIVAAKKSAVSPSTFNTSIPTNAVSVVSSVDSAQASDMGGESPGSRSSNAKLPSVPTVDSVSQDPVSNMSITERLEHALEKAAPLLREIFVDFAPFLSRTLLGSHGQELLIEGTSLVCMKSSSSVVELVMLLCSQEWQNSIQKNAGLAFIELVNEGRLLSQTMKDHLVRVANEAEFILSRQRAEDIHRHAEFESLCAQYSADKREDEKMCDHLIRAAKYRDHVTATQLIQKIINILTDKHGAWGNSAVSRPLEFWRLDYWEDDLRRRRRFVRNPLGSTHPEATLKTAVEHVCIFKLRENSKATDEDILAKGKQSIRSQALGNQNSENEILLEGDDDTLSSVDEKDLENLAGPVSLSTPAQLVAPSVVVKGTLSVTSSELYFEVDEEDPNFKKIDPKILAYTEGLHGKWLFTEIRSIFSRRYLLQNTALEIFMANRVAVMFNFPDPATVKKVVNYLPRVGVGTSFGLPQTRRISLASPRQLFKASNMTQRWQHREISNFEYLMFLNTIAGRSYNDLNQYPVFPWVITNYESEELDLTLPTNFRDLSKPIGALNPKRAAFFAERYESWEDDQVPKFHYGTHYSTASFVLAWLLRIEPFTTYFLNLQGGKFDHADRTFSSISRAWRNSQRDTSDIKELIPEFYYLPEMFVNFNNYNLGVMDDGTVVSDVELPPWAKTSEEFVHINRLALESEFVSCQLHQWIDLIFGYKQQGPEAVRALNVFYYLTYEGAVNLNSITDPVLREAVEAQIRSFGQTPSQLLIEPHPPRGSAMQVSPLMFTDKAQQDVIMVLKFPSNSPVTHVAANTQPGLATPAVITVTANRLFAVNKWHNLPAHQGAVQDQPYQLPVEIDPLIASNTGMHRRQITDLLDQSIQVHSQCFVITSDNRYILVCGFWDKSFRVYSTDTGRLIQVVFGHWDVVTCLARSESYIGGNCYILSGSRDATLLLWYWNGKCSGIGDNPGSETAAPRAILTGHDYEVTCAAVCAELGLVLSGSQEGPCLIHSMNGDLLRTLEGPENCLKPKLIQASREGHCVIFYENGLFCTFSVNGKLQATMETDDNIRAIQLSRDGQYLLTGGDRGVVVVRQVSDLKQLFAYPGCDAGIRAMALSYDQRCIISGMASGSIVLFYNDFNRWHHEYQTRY

[3] = molecular target: T1, cysteines in MDA-MB-231 and Ramos cells (Homo sapiens, UniProt P09110); test: Competitive isoTOP-ABPP in situ (fragment-treated cells); type: cell-based; settings: 200 μM, insitu, 231
T1 sequence (P09110 27-424): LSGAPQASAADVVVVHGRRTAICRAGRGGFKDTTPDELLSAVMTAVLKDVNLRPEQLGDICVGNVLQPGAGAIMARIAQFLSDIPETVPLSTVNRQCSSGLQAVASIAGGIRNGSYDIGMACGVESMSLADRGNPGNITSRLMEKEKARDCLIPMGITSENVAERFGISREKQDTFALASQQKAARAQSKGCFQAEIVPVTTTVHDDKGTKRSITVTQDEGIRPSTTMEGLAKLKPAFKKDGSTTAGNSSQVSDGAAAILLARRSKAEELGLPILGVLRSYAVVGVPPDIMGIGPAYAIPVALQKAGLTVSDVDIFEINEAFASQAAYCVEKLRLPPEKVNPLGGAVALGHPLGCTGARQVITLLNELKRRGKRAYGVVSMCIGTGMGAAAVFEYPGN

[4] = molecular target: cysteines in MDA-MB-231 and Ramos cells (Homo sapiens, UniProt P49189); test: as above; type: cell-based; settings: 200 μM, insitu, 231
cysteines in MDA-MB-231 and Ramos cells (Homo sapiens, UniProt P49189), sequence (P49189 whole entry): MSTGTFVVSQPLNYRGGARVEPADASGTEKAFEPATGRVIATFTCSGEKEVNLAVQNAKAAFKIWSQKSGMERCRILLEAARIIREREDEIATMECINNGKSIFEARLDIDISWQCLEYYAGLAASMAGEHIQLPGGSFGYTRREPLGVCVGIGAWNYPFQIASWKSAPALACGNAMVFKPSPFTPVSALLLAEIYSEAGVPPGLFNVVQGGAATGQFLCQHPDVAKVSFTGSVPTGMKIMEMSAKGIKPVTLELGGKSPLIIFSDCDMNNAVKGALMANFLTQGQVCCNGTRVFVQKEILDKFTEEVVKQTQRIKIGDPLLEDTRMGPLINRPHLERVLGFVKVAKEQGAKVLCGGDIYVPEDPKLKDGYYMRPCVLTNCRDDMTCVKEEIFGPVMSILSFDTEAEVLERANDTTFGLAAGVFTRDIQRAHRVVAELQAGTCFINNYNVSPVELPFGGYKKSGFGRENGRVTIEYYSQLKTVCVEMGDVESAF

[5] = molecular target: cysteines in MDA-MB-231 and Ramos cells (Homo sapiens, UniProt Q9BRF8); test: as above; type: cell-based; settings: 200 μM, insitu, 231
cysteines in MDA-MB-231 and Ramos cells (Homo sapiens, UniProt Q9BRF8), sequence (Q9BRF8 whole entry): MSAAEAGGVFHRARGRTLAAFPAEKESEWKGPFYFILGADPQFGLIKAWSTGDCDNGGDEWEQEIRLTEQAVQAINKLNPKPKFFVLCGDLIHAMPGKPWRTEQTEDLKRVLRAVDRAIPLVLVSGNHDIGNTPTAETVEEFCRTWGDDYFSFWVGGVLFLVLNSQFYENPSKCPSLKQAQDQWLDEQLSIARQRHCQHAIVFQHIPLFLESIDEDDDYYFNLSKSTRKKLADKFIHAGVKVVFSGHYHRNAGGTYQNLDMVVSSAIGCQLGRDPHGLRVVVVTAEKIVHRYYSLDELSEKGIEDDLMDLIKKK

[6] = molecular target: O114933_C98 (Homo sapiens, UniProt O14933); test: Competitive isoTOP-ABPP, cell lysates; type: binding; settings: 500 μm
O114933_C98, sequence (O14933 whole entry): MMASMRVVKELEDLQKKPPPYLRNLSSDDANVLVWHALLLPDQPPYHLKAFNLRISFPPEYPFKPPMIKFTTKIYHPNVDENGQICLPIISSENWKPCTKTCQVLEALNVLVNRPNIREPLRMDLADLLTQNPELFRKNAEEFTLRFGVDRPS

RRAGC C377 (Q9HB90), sequence (Q9HB90 2-399 limits assumed): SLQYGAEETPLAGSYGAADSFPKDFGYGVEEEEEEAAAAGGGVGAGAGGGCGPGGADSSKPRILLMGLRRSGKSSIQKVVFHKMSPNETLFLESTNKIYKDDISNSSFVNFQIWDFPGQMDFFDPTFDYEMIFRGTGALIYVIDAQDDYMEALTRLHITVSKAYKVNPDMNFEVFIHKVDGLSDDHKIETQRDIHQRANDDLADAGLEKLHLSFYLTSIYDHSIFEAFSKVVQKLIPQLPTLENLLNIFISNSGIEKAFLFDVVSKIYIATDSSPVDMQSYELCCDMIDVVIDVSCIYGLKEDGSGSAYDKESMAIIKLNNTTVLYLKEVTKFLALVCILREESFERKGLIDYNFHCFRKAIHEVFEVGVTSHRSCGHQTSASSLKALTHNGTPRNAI
RRAGC C377 (Q9HB90), sequence (Q7L523 whole entry partner): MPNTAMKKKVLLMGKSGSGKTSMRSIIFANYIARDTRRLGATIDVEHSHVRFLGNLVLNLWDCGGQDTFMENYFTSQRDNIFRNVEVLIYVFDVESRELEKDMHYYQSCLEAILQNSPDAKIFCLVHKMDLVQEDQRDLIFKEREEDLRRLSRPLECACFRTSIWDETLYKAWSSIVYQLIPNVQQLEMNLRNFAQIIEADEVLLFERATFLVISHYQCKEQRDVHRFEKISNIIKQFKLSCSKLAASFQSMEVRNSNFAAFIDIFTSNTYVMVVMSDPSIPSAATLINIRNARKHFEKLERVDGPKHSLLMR

**Q.** For O=C(CCl)NC1C(O)OC(CO)C(O)C1O (mixture of isomers) [compound 44], which “isoTOP-ABPP reactivity profile ratio, Q9HB90_C377” value ([1]; 500 μm, in-vitro_ramos_231) is on record?
**A.** 0.7

**Q.** With O=C(CCl)Nc1cc(C(F)(F)F)cc(C(F)(F)F)c1 [compound 3] as the molecule, how does the “R value (DMSO/fragment)” value ([2]; 500 μM, invitro, ramos) read?
**A.** 3.6

**Q.** And the “R value (DMSO/fragment)” value ([1]; 500 μM, in vitro, MDA-MB-231)?
**A.** 3.7

**Q.** Which “isoTOP-ABPP ratio, P50851_C1704” value ([2]; 500 μM, invitro, ramos) does the source give for C=CC(=O)N(c1ccccc1)c1ccc(Br)cc1 [compound 5] here?
**A.** 3.6

**Q.** With O=C(CCl)NC(=O)NC12CC3CC(CC(C3)C1)C2 [compound 12] as the molecule, how does the “isoTOP-ABPP ratio, cysteine P09110_C381” value [3] read?
**A.** 4.5

**Q.** What about the “isoTOP-ABPP ratio P49189_C288” value [4] of the same molecule?
**A.** 1.8

**Q.** And the “isoTOP-ABPP ratio Q9BRF8_C54” value [5]?
**A.** 1.2

**Q.** Which “isoTOP-ABPP ratio (reactivity profile), P50851_C1704” value ([2]; 500 μm in-vitro ramos) does the source give for C=CC(=O)N(Cc1cccnc1)c1ccc(Oc2ccccc2)c(C(F)(F)F)c1 [compound 15] here?
**A.** 1.9

**Q.** With O=C(CCl)N1CCC(C(O)(c2ccccc2)c2ccccc2)CC1 [compound 20] as the molecule, how does the “isoTOP-ABPP ratio (reactivity profile), P50851_C1704” value ([2]; 500 μm in-vitro ramos) read?
**A.** 1.7

**Q.** What about the “isoTOP-ABPP ratio (reactivity profile), P50851_C1704” value ([2]; 500 μm in-vitro ramos_231) of the same molecule?
**A.** 2.0

**Q.** Which results are given for CC(Cl)C(=O)Nc1cc(C(F)(F)F)cc(C(F)(F)F)c1 (stereo not shown) [compound 25]?
**A.** isoTOP-ABPP ratio (reactivity profile), P50851_C1704 ([2]; 500 μm in-vitro ramos_231): 0.8; isoTOP-ABPP ratio (reactivity profile), Q9HB90_C377 ([1]; 500 μm in-vitro ramos_231): 1.0

**Q.** COc1ccccc1OCCNC(=O)CCl [compound 28] was tested. Which “isoTOP-ABPP ratio P09110_C381” value [3] did it give?
**A.** 0.8

**Q.** And the “isoTOP-ABPP ratio (reactivity profile), Q9HB90_C377” value ([1]; 500 μm in-vitro ramos_231)?
**A.** 1.3

**Q.** How did the “isoTOP-ABPP ratio (reactivity profile), Q9HB90_C377” value ([1]; 500 μm in-vitro ramos) turn out when CCN(CC)c1ccc(S(N)(=O)=O)cc1NC(=O)CCl [compound 30] was run?
**A.** 1.4

**Q.** And the “isoTOP-ABPP reactivity ratio, O114933_C98” value ([6]; in-vitro_ramos)?
**A.** 2.1

**Q.** For CC(C)(C)c1cc(NC(=O)CCl)on1 [compound 32], which “isoTOP-ABPP reactivity ratio, P50851_C1704” value [2] is on record?
**A.** 2.0

**Q.** And the “isoTOP-ABPP reactivity ratio, Q9HB90_C377” value ([1]; 500 μm, in-vitro_ramos)?
**A.** 1.5

**Q.** And the “isoTOP-ABPP reactivity ratio, O114933_C98” value ([6]; in-vitro_ramos)?
**A.** 4.6

**Q.** What about the “isoTOP-ABPP reactivity ratio, O114933_C98” value ([6]; in-vitro_ramos_231) of the same molecule?
**A.** 13.8

**Q.** Which “isoTOP-ABPP reactivity ratio, O114933_C98” value ([6]; in-vitro_ramos_231) does the source give for O=C(CCl)N(Cc1ccc(F)cc1)C12CC3CC(CC(C3)C1)C2 [compound 34] here?
**A.** 0.8

**Q.** With O=C(CCl)Nc1ccccc1C1CCCCCC1 [compound 35] as the molecule, how does the “isoTOP-ABPP reactivity ratio, P50851_C1704” value [2] read?
**A.** 1.1

**Q.** C=CC(=O)N1CCC(c2noc3ccc(F)cc23)CC1 [compound 37] was tested. Which “isoTOP-ABPP reactivity ratio, P50851_C1704” value [2] did it give?
**A.** 1.0

**Q.** How did the “isoTOP-ABPP reactivity ratio, O114933_C98” value ([6]; in-vitro_ramos) turn out when C=CC(=O)Nc1cc(C)c(Br)cc1C [compound 40] was run?
**A.** 1.3

**Q.** With CC1CCc2ccccc2N1C(=O)CCl (stereo not shown) [compound 45] as the molecule, how does the “isoTOP-ABPP ratio P09110_C381” value [3] read?
**A.** 1.2

**Q.** What about the “isoTOP-ABPP ratio P49189_C288” value [4] of the same molecule?
**A.** 20.0

**Q.** And the “isoTOP-ABPP ratio Q9BRF8_C54” value [5]?
**A.** 20.0

**Q.** What does the source list for O=C(CCl)Nc1cccc2ncccc12 [compound 51]?
**A.** isoTOP-ABPP reactivity profile ratio, P50851_C1704 [2]: 1.1; isoTOP-ABPP reactivity profile ratio, Q9HB90_C377 ([1]; 500 μm, in-vitro_ramos_231): 0.6

**Q.** With O=C(CCl)Nc1ccc(-c2ccccc2)cc1 [compound 52] as the molecule, how does the “isoTOP-ABPP reactivity profile ratio, P50851_C1704” value [2] read?
**A.** 1.1

**Q.** For C=CC(=O)N1CCC(Cc2ccccc2)CC1 [compound 53], which “isoTOP-ABPP reactivity profile ratio, Q9HB90_C377” value ([1]; 500 μm, in-vitro_ramos) is on record?
**A.** 1.1
